Measurements as given in patent US8952147B2, “Conjugates, preparation thereof, and therapeutic use thereof” (Sanofi, priority 2009, dated 2015).

Key:
Type in all cases: cell-based
MDA-MB-231 cells = test: Inhibition of proliferation of MDA-MB-231 cells by the cytotoxic agents (14C-thymidine incorporation); settings: Homo sapiens, 3 days culture, 14C-thymidine incorporation at 96 hours
Description: (§1) Evaluation of the inhibition of proliferation of MDA-MB-231, MDA-A1 and HCT116 cell lines by the cytotoxic agents, study performed on the compounds of formula (II) of the type SZa with Za═SMe or of the type —C(═O)—ZbRb with ZbRb=OMe or OCH2—CH═CH2 The MDA-MB-231, MDA-A1 or HCT116 cells in their exponential growth phase are trypsinized and resuspended in their respective culture medium (DMEM/F12 Gibco #21331, 10% FCS Gibco #10500-056, […] Gibco #25030 for the MDA cells; DMEM Gibco #11960, 10% FCS Gibco #10500-056, 2 mM glutamine Gibco #25030 for the HCT116 cells). The cell suspension is seeded in Cytostar 96-well culture plates (GE Healthcare Europe, #RPNQ0163) in the whole culture medium containing serum at a density of 5000 cells/well (MDA-MB-231, MDA-A1, HCT116). After incubation for 4 hours, successive dilutions of the cryptophycin derivatives are added to the wells at concentrations decreasing from 10^−7 to 10^−12 M (in triplicate for each concentration). The cells are cultured for 3 days at 37° C. under an atmosphere containing 5% CO2 in the presence of the cytotoxic agents. On the 4th day, 10 μl of a ^14C-thymidine solution (0.1 μCi/well, Perkin Elmer #NEC56825000) are added to each well. The incorporation of ^14C-thymidine is measured 96 hours after the start of the experiment using a microbeta radioactivity counter (Perkin Elmer). The data are expressed in the form of a percentage of survival by determining the ratio between the reduced count obtained with the cells treated with cytotoxic agent and the count obtained with the cells of the control wells (treated with the culture medium alone).

HCT116 cells = test: Inhibition of proliferation of HCT116 cells by the cytotoxic agents (14C-thymidine incorporation); settings: Homo sapiens, HCT-116, 3 days culture, 14C-thymidine incorporation at 96 hours
Description: as §1

MDA-A1 cells = test: Inhibition of proliferation of MDA-A1 cells by the cytotoxic agents (14C-thymidine incorporation); settings: 3 days culture, 14C-thymidine incorporation at 96 hours
Description: as §1

Structure (SMILES) | IC50 (MDA-MB-231 cells) [nM] | IC50 (HCT116 cells) [nM] | IC50 (MDA-A1 cells) [nM]
COc1ccc(C[C@H]2NC(=O)/C=C/C[C@@H]([C@H](C)[C@H]3O[C@@H]3c3ccc(CO)cc3)OC(=O)[C@H](CC(C)C)OC(=O)C(C)(C)CNC2=O)cc1Cl [Compound 1, reference compound] | 0.041 | 0.032 | 1.07
COc1ccc(C[C@H]2NC(=O)/C=C/C[C@@H]([C@H](C)[C@H]3O[C@@H]3c3ccc(CN4CCN(C(=O)CCC(C)(C)SSC)CC4)cc3)OC(=O)[C@H](CC(C)C)OC(=O)C(C)(C)CNC2=O)cc1Cl [Compound 7, (E)-(3S,10R,16S)-10-(3-Chloro-4-methoxybenzyl)-3-isobutyl-6,6-dimethyl-16-[(S)-1-((2R,3R)-3-{4-[4-(4-methyl-4-methyldisulfanylpentanoyl)piperazin-1-ylmethyl]phenyl}oxiranyl)-ethyl]-1,4-dioxa-8,11-diazacyclohexadec-13-ene-2,5,9,12-tetraone] | 0.303 | 0.315 | 7.95
COc1ccc(C[C@H]2NC(=O)/C=C/C[C@@H]([C@H](C)[C@H]3O[C@@H]3c3ccc(CO)cc3)OC(=O)[C@H](CC(C)C)OC(=O)[C@H](C)CNC2=O)cc1Cl [Compound 8, reference compound] | 0.104 | 0.052 | 0.828
COc1ccc(C[C@H]2NC(=O)/C=C/C[C@@H]([C@H](C)[C@H]3O[C@@H]3c3ccc(CNCC(C)(C)SSC)cc3)OC(=O)[C@H](CC(C)C)OC(=O)C(C)(C)CNC2=O)cc1Cl [Compound 13, (E)-(3S,10R,16S)-10-(3-Chloro-4-methoxybenzyl)-3-isobutyl-16-[(S)-1-((2R,3R)-3-{4-[(2-methyl-2-methyldisulfanylpropylamino)methyl]phenyl}oxiranyl)ethyl]-6,6-dimethyl-1,4-dioxa-8,11-diazacyclohexadec-13-ene-2,5,9,12-tetraone] | 0.529 | 0.336 | 9.76
COc1ccc(C[C@H]2NC(=O)/C=C/C[C@@H]([C@H](C)[C@H]3O[C@@H]3c3ccc(CN4CCN(CC(C)(C)SSC)CC4)cc3)OC(=O)[C@H](CC(C)C)OC(=O)C(C)(C)CNC2=O)cc1Cl [Compound 19, (E)-(3S,10R,16S)-10-(3-Chloro-4-methoxybenzyl)-3-isobutyl-6,6-dimethyl-16-[(S)-1-((2R,3R)-3-{4-[4-(2-methyl-2-methyldisulfanylpropyl)piperazin-1-ylmethyl]phenyl}oxiranyl)ethyl]-1,4-dioxa-8,11-diazacyclohexadec-13-ene-2,5,9,12-tetraone] | 0.149 | 0.152 | 2.71
COc1ccc(C[C@H]2NC(=O)/C=C/C[C@@H]([C@H](C)[C@H]3O[C@@H]3c3ccc(CN(C)CCOCCOCCOCCN(C)CC(C)(C)SSC)cc3)OC(=O)[C@H](CC(C)C)OC(=O)C(C)(C)CNC2=O)cc1Cl [Compound 30] | 0.03 | 0.031 | 11.9
C=CCOC(=O)CN1CCN(Cc2ccc([C@H]3O[C@@H]3[C@@H](C)[C@@H]3C/C=C/C(=O)N[C@H](Cc4ccc(OC)c(Cl)c4)C(=O)NCC(C)(C)C(=O)O[C@@H](CC(C)C)C(=O)O3)cc2)CC1 [Compound 40, Allyl (4-{4-[(2R,3R)-3-((S)-1-{(E)-(3S,10R,16S)-10-[3-chloro-4-methoxybenzyl]-3-isobutyl-6,6-dimethyl-2,5,9,12-tetraoxo-1,4-dioxa-8,11-diazacyclohexadec-13-en-16-yl}ethyl)-oxiranyl]benzyl}piperazin-1-yl)acetate] | 0.293 | 0.12 | 1.58
C=CCOC(=O)CCOCCOCCOCCOCCNCc1ccc([C@H]2O[C@@H]2[C@@H](C)[C@@H]2C/C=C/C(=O)N[C@H](Cc3ccc(OC)c(Cl)c3)C(=O)NCC(C)(C)C(=O)O[C@@H](CC(C)C)C(=O)O2)cc1 [Compound 44, Allyl (2-{2-[2-(2-{4-[(2R,3R)-3-((S)-1-{(E)-(3S,10R,16S)-10-[3-chloro-4-methoxy-benzyl]-3-isobutyl-6,6-dimethyl-2,5,9,12-tetraoxo-1,4-dioxa-8,11-diazacyclohexadec-13-en-16-yl}ethyl)oxiranyl]benzylamino}ethoxy)ethoxy]ethoxy}ethoxy)propanoate] | 0.156 | 0.135 | 15.6
COc1ccc(C[C@H]2NC(=O)/C=C/C[C@@H]([C@H](C)[C@@H]3O[C@H]3c3ccc(CO)cc3)OC(=O)[C@H](CC(C)C)OC(=O)C(C)(C)CNC2=O)cc1Cl [Compound 57] | 1.19 | 1.13 | 29
COC(=O)CCCc1cn(Cc2ccc([C@H]3O[C@@H]3[C@@H](C)[C@@H]3C/C=C/C(=O)N[C@H](Cc4ccc(OC)c(Cl)c4)C(=O)NCC(C)(C)C(=O)O[C@@H](CC(C)C)C(=O)O3)cc2)nn1 [Compound 62, Methyl (1-{4-[(2R,3R)-3-((S)-1-{(E)-(3S,10R,16S)-10-[3-chloro-4-methoxybenzyl]-3-isobutyl-6,6-dimethyl-2,5,9,12-tetraoxo-1,4-dioxa-8,11-diazacyclohexadec-13-en-16-yl}ethyl)-oxiranyl]benzyl}-1H-1,2,3-triazol-4-yl)butanoate] | 0.095 | 0.035 | 10.9
COc1ccc(C[C@H]2NC(=O)/C=C/C[C@@H]([C@H](C)[C@H]3O[C@@H]3c3ccc(CN)cc3)OC(=O)[C@H](CC(C)C)OC(=O)C(C)(C)CNC2=O)cc1Cl [Compound 77, (E)-(3S,10R,16S)-16-{(S)-1-[(2R,3R)-3-(4-Aminomethylphenyl)oxiranyl]ethyl}-10-(3-chloro-4-methoxybenzyl)-3-isobutyl-6,6-dimethyl-1,4-dioxa-8,11-diazacyclohexadec-13-ene-2,5,9,12-tetraone] | 0.17 | 0.105 | 15.1
